{"source": "patent US8258134B2", "about": "“Pyridazinone glucokinase activators” (Hoffmann-La Roche Inc., priority 2008, dated 2012)", "molecular_target": "T1, Recombinant human liver GK1 (GST-GK) (Homo sapiens, UniProt P35557)", "T1 construct": "made in house; host or cells: E. coli", "T1 sequence (P35557 1-466 isoform P35557-2)": "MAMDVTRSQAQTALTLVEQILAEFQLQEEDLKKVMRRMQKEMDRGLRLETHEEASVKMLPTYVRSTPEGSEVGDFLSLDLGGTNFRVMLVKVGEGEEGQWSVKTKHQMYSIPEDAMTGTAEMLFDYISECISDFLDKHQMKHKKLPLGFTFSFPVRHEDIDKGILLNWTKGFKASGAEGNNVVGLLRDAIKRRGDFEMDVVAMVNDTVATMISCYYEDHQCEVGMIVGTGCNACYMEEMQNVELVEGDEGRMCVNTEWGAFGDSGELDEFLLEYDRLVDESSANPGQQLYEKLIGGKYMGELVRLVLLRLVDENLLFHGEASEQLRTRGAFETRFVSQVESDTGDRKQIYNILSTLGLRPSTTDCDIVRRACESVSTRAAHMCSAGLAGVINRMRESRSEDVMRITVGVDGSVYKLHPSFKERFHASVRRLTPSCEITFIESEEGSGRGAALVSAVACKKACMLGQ", "assay": "Glucokinase in vitro assay (G6PDH-coupled NADH generation, OD340)", "assay_type": "biochemical", "conditions": "5 mM D-glucose; for SC1.5 average (concentration of activator that produced a 50% increase in the activity of GK): 30° C., pH 7.1, 10% DMSO; for fold activation @ 30 uM: 30 uM test compound", "how_it_was_run": "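Activation readout is SC1.5, the activator concentration raising GK rate (OD340/min) 50% above 10% DMSO controls. The coupled reaction used GST-GK1 from E. coli, 5 mM glucose, 1 mM ATP, 1.8 mM NAD and 25 mM Hepes pH 7.1 at 30° C. Enzyme was added after a 10 min compound pre-incubation.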", "data": [{"smiles": "CC(C)(O)Cn1ccc(NC(=O)C(CC2CCCC2)n2ncccc2=O)n1", "note": "(centres unmarked) [Example 78, 3-Cyclopentyl-N-[1-(2-hydroxy-2-methyl-propyl)-1H-pyrazol-3-yl]-2-(6-oxo-6H-pyridazin-1-yl)-propionamide]", "values": [{"measurement": "SC1.5 average (concentration of activator that produced a 50% increase in the activity of GK)", "result": 14.436, "unit": "µM"}]}, {"smiles": "O=C(Nc1nccs1)C(CC1CCCC1)n1ncccc1=O", "note": "(centres unmarked) [Example 79, 3-Cyclopentyl-2-(6-oxo-6H-pyridazin-1-yl)-N-thiazol-2-yl-propionamide]", "values": [{"measurement": "SC1.5 average (concentration of activator that produced a 50% increase in the activity of GK)", "result": 14.605, "unit": "µM"}]}, {"smiles": "COc1cnn(C(CC2CCCC2)C(=O)Nc2nccs2)c(=O)c1", "note": "(centres unmarked) [Example 80, 3-Cyclopentyl-2-(4-methoxy-6-oxo-6H-pyridazin-1-yl)-N-thiazol-2-yl-propionamide]", "values": [{"measurement": "SC1.5 average (concentration of activator that produced a 50% increase in the activity of GK)", "result": 3.208, "unit": "µM"}]}, {"smiles": "Cn1ccc(NC(=O)C(CC2CCCC2)n2ncccc2=O)n1", "note": "(centres unmarked) [Example 82, 3-Cyclopentyl-N-(1-methyl-1H-pyrazol-3-yl)-2-(6-oxo-6H-pyridazin-1-yl)-propionamide]", "values": [{"measurement": "fold activation @ 30 uM", "result": 1.3, "unit": "fold"}, {"measurement": "SC1.5 average (concentration of activator that produced a 50% increase in the activity of GK)", "result": "> 30", "unit": "µM"}]}, {"smiles": "O=C(Nc1nccs1)C(CC1CCCC1)n1ncc2ccccc2c1=O", "note": "(centres unmarked) [Example 83, 3-Cyclopentyl-2-(1-oxo-1H-phthalazin-2-yl)-N-thiazol-2-yl-propionamide]", "values": [{"measurement": "SC1.5 average (concentration of activator that produced a 50% increase in the activity of GK)", "result": 8.783, "unit": "µM"}]}, {"smiles": "CC(C)(O)Cn1ccc(NC(=O)C(CC2CCCC2)n2ncc3ccccc3c2=O)n1", "note": "(centres unmarked) [Example 84, 3-Cyclopentyl-N-[1-(2-hydroxy-2-methyl-propyl)-1H-pyrazol-3-yl]-2-(1-oxo-1H-phthalazin-2-yl)-propionamide]", "values": [{"measurement": "SC1.5 average (concentration of activator that produced a 50% increase in the activity of GK)", "result": 15.983, "unit": "µM"}]}, {"smiles": "Cn1ccc(NC(=O)C(CC2CCCC2)n2nc(Oc3ccccc3)ccc2=O)n1", "note": "(centres unmarked) [Example 85, 3-cyclopentyl-N-(1-methyl-1H-pyrazol-3-yl)-2-(6-oxo-3-phenoxy-6H-pyridazin-1-yl)-propionamide]", "values": [{"measurement": "fold activation @ 30 uM", "result": 1.3, "unit": "fold"}, {"measurement": "SC1.5 average (concentration of activator that produced a 50% increase in the activity of GK)", "result": "> 30", "unit": "µM"}]}, {"smiles": "Cc1ccc(C)c(Oc2cnn(C(CC3CCCC3)C(=O)Nc3ccn(CC(C)(C)O)n3)c(=O)c2)c1C", "note": "(centres unmarked) [Example 88, 3-Cyclopentyl-N-[1-(2-hydroxy-2-methyl-propyl)-1H-pyrazol-3-yl]-2-[6-oxo-4-(2,3,6-trimethyl-phenoxy)-6H-pyridazin-1-yl]-propionamide]", "values": [{"measurement": "SC1.5 average (concentration of activator that produced a 50% increase in the activity of GK)", "result": 0.204, "unit": "µM"}]}, {"smiles": "CC(C)(O)Cn1ccc(NC(=O)C(CC2CCCC2)n2ncc(Oc3cccc4c3OC(C)(C)C4)cc2=O)n1", "note": "(centres unmarked) [Example 89, 3-Cyclopentyl-2-[4-(2,2-dimethyl-2,3-dihydro-benzofuran-7-yloxy)-6-oxo-6H-pyridazin-1-yl]-N-[1-(2-hydroxy-2-methyl-propyl)-1H-pyrazol-3-yl]-propionamide]", "values": [{"measurement": "SC1.5 average (concentration of activator that produced a 50% increase in the activity of GK)", "result": 0.568, "unit": "µM"}]}, {"smiles": "CC(C)(O)Cn1ccc(NC(=O)C(CC2CCCC2)n2ncc(Oc3ccccc3C(C)(C)C)cc2=O)n1", "note": "(centres unmarked) [Example 90, 2-[4-(2-tert-Butyl-phenoxy)-6-oxo-6H-pyridazin-1-yl]-3-cyclopentyl-N-[1-(2-hydroxy-2-methyl-propyl)-1H-pyrazol-3-yl]-propionamide]", "values": [{"measurement": "SC1.5 average (concentration of activator that produced a 50% increase in the activity of GK)", "result": 0.5, "unit": "µM"}]}, {"smiles": "CC1CCCC(C)C1Oc1cnn(C(CC2CCCC2)C(=O)Nc2ccn(C[C@@H](O)CO)n2)c(=O)c1", "note": "(stereo partly drawn) [Example 91, 3-Cyclopentyl-N-[1-((R)-2,3-dihydroxy-propyl)-1H-pyrazol-3-yl]-2-[4-(2,6-dimethyl-cyclohexyloxy)-6-oxo-6H-pyridazin-1-yl]-propionamide]", "values": [{"measurement": "fold activation @ 30 uM", "result": 1.28, "unit": "fold"}, {"measurement": "SC1.5 average (concentration of activator that produced a 50% increase in the activity of GK)", "result": "> 30", "unit": "µM"}]}, {"smiles": "O=C(Nc1ccn(C[C@@H](O)CO)n1)C(CC1CCCC1)n1ncc(Oc2cccc(Cl)c2Cl)cc1=O", "note": "(stereo partly drawn) [Example 92, 3-Cyclopentyl-2-[4-(2,3-dichloro-phenoxy)-6-oxo-6H-pyridazin-1-yl]-N-[1-((R)-2,3-dihydroxy-propyl)-1H-pyrazol-3-yl]-propionamide]", "values": [{"measurement": "SC1.5 average (concentration of activator that produced a 50% increase in the activity of GK)", "result": 0.135, "unit": "µM"}]}, {"smiles": "Cc1ccc(Oc2cnn(C(CC3CCCC3)C(=O)Nc3ccn(C[C@@H](O)CO)n3)c(=O)c2)c2c1CCC2", "note": "(stereo partly drawn) [Example 93, 3-Cyclopentyl-N-[1-((R)-2,3-dihydroxy-propyl)-1H-pyrazol-3-yl]-2-[4-(7-methyl-indan-4-yloxy)-6-oxo-6H-pyridazin-1-yl]-propionamide]", "values": [{"measurement": "SC1.5 average (concentration of activator that produced a 50% increase in the activity of GK)", "result": 0.114, "unit": "µM"}]}, {"smiles": "O=C(Nc1ccn(C[C@@H](O)CO)n1)C(CC1CCCC1)n1ncc(OC2CCC2)cc1=O", "note": "(stereo partly drawn) [Example 94, 2-(4-Cyclobutoxy-6-oxo-6H-pyridazin-1-yl)-3-cyclopentyl-N-[1-((R)-2,3-dihydroxy-propyl)-1H-pyrazol-3-yl]-propionamide]", "values": [{"measurement": "fold activation @ 30 uM", "result": 1.33, "unit": "fold"}, {"measurement": "SC1.5 average (concentration of activator that produced a 50% increase in the activity of GK)", "result": "> 30", "unit": "µM"}]}, {"smiles": "O=C(Nc1ccn(C[C@@H](O)CO)n1)C(CC1CCCC1)n1ncc(Oc2ncccc2F)cc1=O", "note": "(stereo partly drawn) [Example 95, 3-Cyclopentyl-N-[1-((R)-2,3-dihydroxy-propyl)-1H-pyrazol-3-yl]-2-[4-(3-fluoro-pyridin-2-yloxy)-6-oxo-6H-pyridazin-1-yl]-propionamide]", "values": [{"measurement": "SC1.5 average (concentration of activator that produced a 50% increase in the activity of GK)", "result": 12.633, "unit": "µM"}]}, {"smiles": "O=C(Nc1ccn(C[C@@H](O)CO)n1)C(CC1CCCC1)n1ncc(Oc2cccc3[nH]ccc23)cc1=O", "note": "(stereo partly drawn) [Example 96, 3-Cyclopentyl-N-[1-((R)-2,3-dihydroxy-propyl)-1H-pyrazol-3-yl]-2-[4-(1H-indol-4-yloxy)-6-oxo-6H-pyridazin-1-yl]-propionamide]", "values": [{"measurement": "SC1.5 average (concentration of activator that produced a 50% increase in the activity of GK)", "result": 0.067, "unit": "µM"}]}, {"smiles": "Cc1occc(=O)c1Oc1cnn(C(CC2CCCC2)C(=O)Nc2ccn(C[C@@H](O)CO)n2)c(=O)c1", "note": "(stereo partly drawn) [Example 97, 3-Cyclopentyl-N-[1-((R)-2,3-dihydroxy-propyl)-1H-pyrazol-3-yl]-2-[4-(2-methyl-4-oxo-4H-pyran-3-yloxy)-6-oxo-6H-pyridazin-1-yl]-propionamide]", "values": [{"measurement": "SC1.5 average (concentration of activator that produced a 50% increase in the activity of GK)", "result": 1.895, "unit": "µM"}]}, {"smiles": "O=C(Nc1ccn(C[C@@H](O)CO)n1)C(CC1CCCC1)n1ncc(Oc2ccccc2OC(F)(F)F)cc1=O", "note": "(stereo partly drawn) [Example 98, 3-Cyclopentyl-N-[1-((R)-2,3-dihydroxy-propyl)-1H-pyrazol-3-yl]-2-[6-oxo-4-(2-trifluoromethoxy-phenoxy)-6H-pyridazin-1-yl]-propionamide]", "values": [{"measurement": "SC1.5 average (concentration of activator that produced a 50% increase in the activity of GK)", "result": 0.244, "unit": "µM"}]}, {"smiles": "Cc1cccc(Oc2cnn(C(CC3CCCC3)C(=O)Nc3ccn(C[C@@H](O)CO)n3)c(=O)c2)n1", "note": "(stereo partly drawn) [Example 99, 3-Cyclopentyl-N-[1-((R)-2,3-dihydroxy-propyl)-1H-pyrazol-3-yl]-2-[4-(6-methyl-pyridin-2-yloxy)-6-oxo-6H-pyridazin-1-yl]-propionamide]", "values": [{"measurement": "SC1.5 average (concentration of activator that produced a 50% increase in the activity of GK)", "result": 1.277, "unit": "µM"}]}, {"smiles": "Cc1ccc(F)c(Oc2cnn(C(CC3CCCC3)C(=O)Nc3ccn(C[C@@H](O)CO)n3)c(=O)c2)c1", "note": "(stereo partly drawn) [Example 100, 3-Cyclopentyl-N-[1-((R)-2,3-dihydroxy-propyl)-1H-pyrazol-3-yl]-2-[4-(2-fluoro-5-methyl-phenoxy)-6-oxo-6H-pyridazin-1-yl]-propionamide]", "values": [{"measurement": "SC1.5 average (concentration of activator that produced a 50% increase in the activity of GK)", "result": 0.101, "unit": "µM"}]}, {"smiles": "O=C(Nc1ccn(C[C@@H](O)CO)n1)C(CC1CCCC1)n1ncc(Oc2ccccc2CCO)cc1=O", "note": "(stereo partly drawn) [Example 101, 3-Cyclopentyl-N-[1-((R)-2,3-dihydroxy-propyl)-1H-pyrazol-3-yl]-2-{4-[2-(2-hydroxy-ethyl)-phenoxy]-6-oxo-6H-pyridazin-1-yl}-propionamide]", "values": [{"measurement": "SC1.5 average (concentration of activator that produced a 50% increase in the activity of GK)", "result": 0.732, "unit": "µM"}]}, {"smiles": "Cc1cc(C)nc(Oc2cnn(C(CC3CCCC3)C(=O)Nc3ccn(C[C@@H](O)CO)n3)c(=O)c2)n1", "note": "(stereo partly drawn) [Example 102, 3-Cyclopentyl-N-[1-((R)-2,3-dihydroxy-propyl)-1H-pyrazol-3-yl]-2-[4-(4,6-dimethyl-pyrimidin-2-yloxy)-6-oxo-6H-pyridazin-1-yl]-propionamide]", "values": [{"measurement": "SC1.5 average (concentration of activator that produced a 50% increase in the activity of GK)", "result": 0.56, "unit": "µM"}]}, {"smiles": "Cn1nc(C(F)(F)F)cc1Oc1cnn(C(CC2CCCC2)C(=O)Nc2ccn(C[C@@H](O)CO)n2)c(=O)c1", "note": "(stereo partly drawn) [Example 103, 3-Cyclopentyl-N-[1-((R)-2,3-dihydroxy-propyl)-1H-pyrazol-3-yl]-2-[4-(2-methyl-5-trifluoromethyl-2H-pyrazol-3-yloxy)-6-oxo-6H-pyridazin-1-yl]-propionamide]", "values": [{"measurement": "SC1.5 average (concentration of activator that produced a 50% increase in the activity of GK)", "result": 2.591, "unit": "µM"}]}, {"smiles": "O=C(Nc1ccn(C[C@@H](O)CO)n1)C(CC1CCCC1)n1ncc(Oc2cccc(Cl)c2F)cc1=O", "note": "(stereo partly drawn) [Example 104, 2-[4-(3-Chloro-2-fluoro-phenoxy)-6-oxo-6H-pyridazin-1-yl]-3-cyclopentyl-N-[1-((R)-2,3-dihydroxy-propyl)-1H-pyrazol-3-yl]-propionamide]", "values": [{"measurement": "SC1.5 average (concentration of activator that produced a 50% increase in the activity of GK)", "result": 0.139, "unit": "µM"}]}, {"smiles": "O=C(Nc1ccn(C[C@@H](O)CO)n1)C(CC1CCCC1)n1ncc(Oc2c(F)cccc2F)cc1=O", "note": "(stereo partly drawn) [Example 105, 3-Cyclopentyl-2-[4-(2,6-difluoro-phenoxy)-6-oxo-6H-pyridazin-1-yl]-N-[1-((R)-2,3-dihydroxy-propyl)-1H-pyrazol-3-yl]-propionamide]", "values": [{"measurement": "SC1.5 average (concentration of activator that produced a 50% increase in the activity of GK)", "result": 0.072, "unit": "µM"}]}]}
